Results from patent US20220110902A1, “Methods of treating amyloid-beta peptide diseases” (Ecole Polytechnique Federale de Lausanne, priority 2016, published 2022).
“Also recorded” adds a separate entry of the source.

Columns and labels:
GMC101 worms [1] = experiment: Worm phenotypic assays in GMC101: mobility, paralysis and death score; format: in vivo, C. elegans; settings: GMC101, period of 4 days; UA 20 uM and 50 uM
Experimental: Doxycycline was obtained from Sigma-Aldrich and dissolved in water. For experiments, a final concentration of 15 μg/mL was used. Olaparib (AZD2281) was dissolved in DMSO to experimental concentrations of 300 nM. Nicotinamide Riboside triflate (NR) was custom synthesized by Novalix (www.novalix-pharma.com/) and dissolved in water, and used at a final concentration of 1 mM. Compounds were added just before pouring the plates. For phenotyping experiments, parental F0 L4 worms were allowed to reach adulthood and lay eggs on the treatment plates. The deriving F1 worms were therefore exposed to compounds during the full life from eggs until death. For RNA analysis experiments, synchronized L1 worms were exposed to the compounds until harvest. To ensure a permanent exposure to the compound, plates were changed twice a week.
Mobility: C. elegans movement analysis was performed as described, starting from day 1 of adulthood, using the Movement Tracker software. The experiments were repeated at least twice.
Paralysis and death score: 5 L4 worms per condition were allowed to reach adulthood and lay eggs on the treatment plates. 45 to 60 deriving F1 worms per condition were manually scored for paralysis after poking, as already described. Worms that were unable to respond to any, repeated stimulation, were scored as dead. Results are representative of the data obtained in at least three independent experiments.
(§1) During the assays, animals were exposed to Myriocin (dissolved in DMSO) from the egg stage on plates seeded with live HT115 E. coli bacteria. Control plates seeded with the same bacteria were prepared with the corresponding concentrations of DMSO. The day of the experiment (day 1 of adulthood, 3 days after hatching), the GMC101 population was shifted to 25° C. in order to induce the amyloid deposition in the body wall muscle. ˜1000 worms were used for western blotting assays.
C. elegans movement analysis was performed as described (Mouchiroud et al., 2016), using the Movement Tracker software. ˜50 adult worms were used per condition for movement assays.
To score for paralysis and death, 50 worms per condition were manually scored after poking as described (McCool et al., 2012; Florez-McClure et al., 2007). Worms that were unable to respond to repeated stimulation were scored as dead.
as §1, with “the compound UA” for “Myriocin (dissolved in DMSO)”, “from” for “from the”, “DMSO (0.1%).” for “DMSO.”, “˜50 adult” for “˜1000”, “per conditions.” for “for western blotting assays.”
C. elegans movement analysis was performed as described in (Mouchiroud et al., 2016), using the Movement Tracker software within a period of 4 days.

GMC101 worms [2] = experiment: Western-blot of amyloid aggregation in GMC101 worms; format: in vivo, C. elegans; settings: GMC101, 24 h after shift to 25° C.; UA 20 uM and 50 uM
Experimental: C. elegans: Worms were lysed by sonication with RIPA buffer containing protease and phosphatase inhibitors (Roche), and analyzed by SDS-PAGE and western blot. The concentration of extracted protein was determined by using the Bio-Rad Protein Assay. Proteins were detected using the following antibodies: anti-β-actin (Sigma), anti-tubulin (Santa Cruz), atp-5, ucr-1 (Oxphos cocktail, Abcam), anti-β-Amyloid, 1-16 (6E10) (BioLegend). In addition to the housekeeping proteins, loading was monitored by Ponceau Red to ensure a homogeneous loading. Pixel intensity was quantified by using ImageJ software. Each immunoblot experiment was repeated at least twice using 3 biological replicates each containing approximately 1000 worms.
as §1
(§2) Worms were lysed by sonication with RIPA buffer containing protease and phosphatase inhibitors (Roche), and analyzed by western blot. The concentration of extracted protein was determined by the Bio-Rad Protein Assay. Proteins were detected using the following antibodies: anti-β-actin (Sigma) and anti-β-Amyloid (BioLegend). In addition to the housekeeping proteins, loading was monitored by Ponceau Red to ensure a homogeneous loading. The immunoblot experiment employed 3 biological replicates, each containing approximately 1000 worms.
as §2, with “extracted proteins” for “extracted protein”, “3 biologicals” for “3 biological”
The GMC101 worms were recovered 24 h after being shifted at 25° C. The population was treated with UA at two different concentrations, ie 20 uM and 50 uM.

C. elegans = settings: cited from earlier work
[3] = test system: mouse models of age-related decline of muscle function; settings: mouse models of age-related decline of muscle function, and young rats; cited from earlier work
[4] = test system: SH-SY5Y neuroblastoma cell line expressing the APP Swedish K670N/M671L double mutation (APPSwe); experiment: Immunostaining of intracellular Aβ deposits in APPSwe SH-SY5Y cells; format: cell-based, human
Experimental: The SH-SY5Y neuroblastoma cell line expressing the APP Swedish K670N/M671L double mutation (APPSwe) was a kind gift of Prof. Cedazo-Minguez (Karolinska Institute, Sweden). Cells were grown in DMEM/F-12, supplemented with 10% fetal bovine serum (FBS, Gibco), GlutaMAX (100×, Gibco) and penicillin/streptomycin (1×, Gibco). Cells were selected in 4 μg/mL Geneticin® Selective Antibiotic (G418 Sulfate, Sigma) and grown for three generations before experiments with cells plated and passaged at 4×10^3 cells/ml and 60% confluence, respectively. Cells were cultured at 37° C. under a 5% CO2 atmosphere and tested for mycoplasma using Mycoprobe (#CUL001B, R&D systems) following the manufacturer's instructions. Cells were treated with 10 μg/mL dox, NR 1 or 3 mM, ISRIB 0.5 μM (Sigma), as indicated for 24 hours before cell harvesting or fixation. For the immunostaining, cells were fixed with 1× Formal-Fixx (Thermo Scientific) for 15 min. After 15 min permeabilization with 0.1% Triton X-100, cells were blocked in PBS supplemented with 5% fetal bovine serum for 1 hour and immunostained overnight, at 4° C., with the anti-β-Amyloid 1-42 (1:100, Millipore AB5078P). The secondary antibody was coupled to the Alexa-488 fluorochrome (Thermo Scientific), and nuclei were stained with DAPI (Invitrogen, D1306). After washing in PBS, cell slides were mounted with Dako mounting medium (Dako, S3023) and examined with a Zeiss LSM 700 confocal microscope (Carl Zeiss MicroImaging) equipped with a Plan-Apochromat 40×/1.3 NA oil immersion objective lens using a 488 nm laser. Laser power was set at the lowest intensity allowing clear visualization of the signal. Imaging settings were maintained with the same parameters for comparison between different experimental conditions.
The SH-SY5Y neuroblastoma cell line expresses the APP Swedish K670N/M671L double mutation (APPSwe) (Zheng et al., 2011) and accumulates intracellular Aβ amyloid aggregates. Cells were grown in DMEM/F-12, supplemented with 10% fetal bovine serum (FBS, Gibco), GlutaMAX (100×, Gibco) and penicillin/streptomycin (1×, Gibco). Cells were selected in 4 μg/mL Geneticin® Selective Antibiotic (G418 Sulfate, Sigma) and grown for three generations before experiments with cells plated and passaged at 4×10{right arrow over ( )}3 cells/ml and 60% confluence, respectively. Cells were cultured at 37° C. under a 5% CO2 atmosphere and tested for mycoplasma using Mycoprobe (#CUL001B, R&D systems), following the manufacturer's instructions. Myriocin was dissolved in DMSO.
Cells were treated with 10 uM Myriocin and Fumonisin B1 for 24 hours before harvesting or fixation (FIG. 3A). For immunostaining, cells were fixed with 1× Formal-Fixx (Thermo Scientific) for 15 min. […]

SH-SY5Y(APPSwe) cells = experiment: Western-blot and transcript analysis in SH-SY5Y(APPSwe) cells; format: cell-based, human; settings: ISRIB 0.5 μM with dox 10 μg/mL, 24 h
Experimental: Human: Total RNA was extracted using guanidine-isothiocyanate lysis (PureLink, Ambion, Waltham, Mass.) from cortex samples, and RNA integrity and concentration was verified using Bioanalysis (Agilent, Santa Clara, Calif.). Samples were randomized based on diagnostic group and assayed in triplicate on a real-time PCR cycler (ABI 7500, Applied Biosystems, Foster City) in 96-well optical plates. qPCR was performed using Taqman hydrolysis probe primer sets (Applied Biosystems) specific for the following human transcripts: HSPA9, HSPD1, YMEIL1, DNM1L, BECN1, SQSTM1, PARK2, COX5A, CYC1. A primer set specific for human GAPDH was used as a control housekeeping transcript. For the APPSwe-expressing SH-SY5Y cell line, total RNA was extracted […] using TriPure RNA isolation reagent, and expression of selected transcripts was analyzed using the LightCycler480 system (Roche) and LightCycler® 480 SYBR Green I Master reagent (Roche). The GAPDH gene was used as housekeeping reference. The ddCT method was employed to determine relative levels of each amplicon. […] The SH-SY5Y neuroblastoma cell line expressing the APP Swedish K670N/M671L double mutation (APPSwe) was a kind gift of Prof. Cedazo-Minguez (Karolinska Institute, Sweden). Cells were grown in DMEM/F-12, supplemented with 10% fetal bovine serum (FBS, Gibco), GlutaMAX (100×, Gibco) and penicillin/streptomycin (1×, Gibco). Cells were selected in 4 μg/mL Geneticin® Selective Antibiotic (G418 Sulfate, Sigma) and grown for three generations before experiments with cells plated and passaged at 4×10^3 cells/ml and 60% confluence, respectively. Cells were cultured at 37° C. under a 5% CO2 atmosphere and tested for mycoplasma using Mycoprobe (#CUL001B, R&D systems) following the manufacturer's instructions. Cells were treated with 10 μg/mL dox, NR 1 or 3 mM, ISRIB 0.5 μM (Sigma), as indicated for 24 hours before cell harvesting or fixation. For the immunostaining, cells were fixed with 1× Formal-Fixx (Thermo Scientific) for 15 min. […]

GMC101 worms [5] = experiment: Development and growth of GMC101 worms; format: in vivo, C. elegans; settings: GMC101, eggs to day 1 of adulthood; dox 15 μg/mL
Experimental: Development: 50 adult worms per condition were transferred on NGM agar plates (10 worms per plate) and allowed to lay eggs for 3 h. Then they were removed and the number of eggs per plate was counted. 72 h later, the number of L1-L3 larvae, L4 and adult worms was counted. The experiment was done twice with five individual plates.

In the case of O=c1oc2cc(O)ccc2c2ccc(O)cc12 [UA, 3,8-Dihydroxyurolithin], the “spontaneous movement (mobility)” value (GMC101 worms [1]) is given as “dose-dependently increased; also recorded: dose-dependent increase”, the “accumulation of amyloid-β aggregates” value (GMC101 worms [2]) is given as “dose-dependently reduced; also recorded: dose-dependent reduction” and the mitochondrial respiratory capacity (C. elegans; C. elegans during aging) is given as “maintaining mitochondrial respiratory capacity”. For the same compound, the “accumulation of dysfunctional mitochondria with age” value (C. elegans; C. elegans) was “prevent the accumulation of dysfunctional mitochondria with age”, the “activity during aging (mobility and pharyngeal pumping)” value (C. elegans; C. elegans) was “maintained normal activity during aging” and the lifespan (C. elegans; C. elegans) was “extended lifespan”. For the same compound, the exercise capacity [3] was “significantly improved exercise capacity”.
In the case of O=C(COc1ccc(Cl)cc1)NC1CCC(NC(=O)COc2ccc(Cl)cc2)CC1 (centres unmarked) [ISRIB, reference compound], the “amyloid clearance by dox after ISRIB pretreatment” value ([4]; ISRIB 0.5 μM with dox 10 μg/mL, 24 h) is reported as “prevented amyloid clearance by dox” and the “dox-mediated induction of ATF4 target genes CHOP and CHAC1” value (SH-SY5Y(APPSwe) cells) is reported as “hampered the dox-mediated induction”.
In the case of C[C@H]1c2cccc(O)c2C(=O)C2=C(O)[C@]3(O)C(=O)C(C(N)=O)=C(O)[C@@H](N(C)C)[C@@H]3[C@@H](O)[C@@H]21 [dox, doxycycline], the “development and growth delay” value (GMC101 worms [5]) is reported as “without causing major development and growth delays”.
In the case of CCCC[C@H](C)[C@@H](OC(=O)C[C@H](CC(=O)O)C(=O)O)[C@@H](C[C@H](C)C[C@@H](O)CCCC[C@@H](O)C[C@H](O)[C@H](C)N)OC(=O)C[C@H](CC(=O)O)C(=O)O [Fumonisin B1, (2S,2'S)-2,2′-{[(5S,6R,7R,9R,11S,16R,18S,19S)-19-Amino-11,16,18-trihydroxy-5,9-dimethylicosane-6,7-diyl]bis[oxy(2-oxoethane-2,1-diyl)]}disuccinic acid], the “intracellular Aβ deposits” value ([4]; 10 uM, 24 hours) is reported as “significantly reduced; also recorded: markedly reduced”.
